In patent publication US12370235B2, “Synthetic, non-natural antimicrobial peptides inspired by Staphylococcus auricularis delta toxin” (University of Saskatchewan, priority 2021, dated 2025):
In brackets after ≈: the same amount, converted by molar mass. Ends that are not written are not given here. Peptide text beside a SMILES is read from it. * marks the point of attachment. For = O=C*

How the values were obtained:
[1] = system: Mannheimia haemolytica ATCC 33393; assay: MIC, broth dilution; assay type: cell-based; conditions: Table 11; highest concentration 25 μg/mL
How it was run: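 Read-out is the lowest peptide concentration showing no growth after an overnight standing culture at 37 °C. Two-fold serial dilutions of 95%-pure peptide were tested against M. haemolytica ATCC 33393 at OD 6×10^−4 in cation-adjusted MH broth.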

C. albicans MYA-2876 = assay: MIC, YPD broth; assay type: cell-based, Candida albicans; conditions: Table 8
How it was run: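 Yeast cells were diluted in YPD broth, and 180 μl aliquots were mixed with 20 μl of peptide from 2-fold serial dilutions in flat-bottom 96-well microtitre plates. Wells receiving 20 μl sterile water served as controls. After standing incubation overnight at 37° C, the MIC was taken as the lowest peptide concentration with no visible microbial growth.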

[2] = system: Candida duobushaemulonii AR 392; assay: MIC, YPD broth, CDC and FDA AR Candida isolate panel; assay type: cell-based; conditions: Table 9 top part: titrations from 1.56 to 100 μg/mL
How it was run: (§1)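 Inhibitory concentration was assigned over a 2-fold peptide dilution range after incubation without shaking at 37° C overnight; inoculum was set to optical density […] and water-only wells served as control.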

Kodamae ohmeri AR 396 = assay: as above; assay type: cell-based; conditions: Table 9 top part: titrations from 1.56 to 100 μg/mL
How it was run: as §1

[3] = Circular dichroism spectroscopy; assay type: physicochemical; conditions: CD, 50% (v/v) TFE
How it was run: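 Secondary structure of peptides dissolved in water at 0.3–0.5 mg/mL was assessed by CD. Spectra were recorded from 180 to 260 nm at room temperature in a 0.1 cm quartz cuvette; water and 50% (v/v) TFE conditions were compared.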

HeLa cells = assay type: cell-based; conditions: 24 h, alamarBlue
Description: Peptide cytotoxicity. In vitro cytotoxicity was measured using the 3D EpiDerm skin tissues and HeLa Cells using a fluorescent reporter of cell viability, alamarBlue (ThermoFisher Scientific). 3D EpiDerm skin tissues (MatTek EPI-200-AFAB) were transferred to a 12 well plate containing 600 μL of AFAB-assay medium supplemented with 10% v/v alamarBlue. […] HeLa cells were seeded in a 96-well plate (2×10^4 cells/per well) and incubated overnight at 37° C. and 5% CO2 in a humidified incubator to prepare wells at ˜50% confluency of adherent cells. After the incubation, spent DMEM was removed and cells were washed with PBS. alamarBlue-containing medium was prepared by mixing Phenol Red-free DMEM with alamarBlue solution at a 9:1 ratio and a 180 μl volume was added to each well. Cells were treated with peptides varying from 3.25 to 200 μg/mL and then incubated for 24 h. The fluorescence intensities of treated cultures were normalized to values measured for an untreated control group. After the 24 h incubation period, alamarBlue fluorescence was measured at 590 nm upon excitation at 560 nm using Varioskan Lux plate reader (Thermo Scientific) plate reader.

SspA protease = SspA protease (Staphylococcus aureus, UniProt P0C1U8); assay: SspA protease treatment, LC/MS analysis; assay type: in vitro ADME; conditions: in vitro, 37° C., ˜5 hours
SspA protease, sequence (P0C1U8 69-336): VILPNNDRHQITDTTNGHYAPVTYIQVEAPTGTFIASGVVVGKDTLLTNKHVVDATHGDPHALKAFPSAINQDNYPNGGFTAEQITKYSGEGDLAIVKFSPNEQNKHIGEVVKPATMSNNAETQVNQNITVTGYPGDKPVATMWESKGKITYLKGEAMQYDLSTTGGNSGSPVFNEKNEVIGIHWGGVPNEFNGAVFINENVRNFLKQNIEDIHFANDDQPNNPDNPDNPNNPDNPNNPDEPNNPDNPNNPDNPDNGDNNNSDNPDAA
Description: SspA protease treatment. SspA protease was resuspended at 2 mg/mL in 100 mM HEPES, pH 7.8. Proteolysis was achieved by incubation of 50 μg PSMs at 37° C. for ˜5 hours with 0.2 mg/mL SspA. The antimicrobial activity of the proteolytic products were assayed by spotting a 5 μL (˜45 μg) from each treated peptide on each test microorganism as described above.
HPLC/MS analysis. High performance liquid chromatography coupled to mass spectrometry (HPLC-MS) was conducted to assess the proteolytic cleavage of synthetic PSMs by the SspA protease, as described above. Both treated samples and untreated controls were incubated at 37° C. for 5 hours, and then frozen until HPLC/MS analysis. An Agilent Infinity II 1260 HPLC outfitted with a Phenomenex Lune C5 column (4.6×150 mm, 5 μm) was used to separate the peptide fragments using a binary solvent system consisting of solvent A (water, 0.05% formic acid) and solvent B (acetonitrile, 0.05% formic acid) operating at 0.7 mL/min. A 5 μl volume (˜4.5 μg) of each sample was injected at 10% solvent B, followed by a two-step gradient elution from 10 to 50% solvent B in 30 minutes, then 50 to 100% B in 10 minutes. The HPLC was coupled to an Advion CMS(L) single quadrupole mass detector through an electrospray ionization source. A line splitter from the HPLC to ESI source was used to deliver sample to the mass detector at 0.3 mL/min. An Advion expression-L CMS detector was used at low temperature and fragmentation settings: capillary temperature: 135° C., capillary voltage 120 V, source voltage offset 20 V, source gas temperature 135° C. and ESI voltage 3500 V. The range of ions detected was between 100 and 2,000 m/z.

M. luteus ATCC 4698 = assay: MIC, broth dilution; assay type: cell-based, Micrococcus luteus; conditions: Table 4; liquid broth
Description: MIC determination. MICs were measured using peptides with 95% purity. For bacterial studies, cation-adjusted Mueller Hinton (MH) broth was used as the growth medium whereas Yeast Peptone Dextrose (YPD; 10 g/L yeast extract, 20 g/L peptone, 20 g/L dextrose) was used for Candida spp. and other yeast. Microorganisms were diluted to an optical density of […] in MH or YPD broth and a 180 μl volume was mixed with 20 μl of peptide arrayed as a 2-fold dilution series in a flat-bottom 96-well microtitre plate. A control was performed using 20 μl of sterile water. Plates were incubated as standing cultures overnight at 37° C.
Determination of minimum inhibitory concentrations. The MICs were measured for bioactive peptides identified from the initial screen. For bacterial studies, cation-adjusted Mueller Hinton (MH) broth was used as the growth medium whereas YPD was used for C. albicans. Bacterial cultures were diluted to a OD value of 6×10^−4 in MH broth and a 180 μl volume was mixed with 20 μl of peptide arrayed as 2-fold dilution series in a 96-well plate. For the positive control, 20 μl of sterile water was used. Plates were incubated as standing cultures overnight at 37° C. The lowest peptide concentration that resulted no observed microbial growth after an overnight treatment was defined as the MIC.

S. aureus ATCC 29213 = assay: MIC, broth dilution; assay type: cell-based, Staphylococcus aureus
How it was run: (§2)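 Peptides of 95% purity tested as 2-fold dilution series against bacteria diluted to OD 6×10^−4 in cation-adjusted Mueller Hinton broth. Standing cultures incubated overnight at 37° C; MIC is the lowest concentration with no visible growth.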

[4] = system: S. aureus ATCC 33592 (MRSA SCCmec type III); assay: MIC, broth dilution; assay type: cell-based, Staphylococcus aureus; conditions: Table 5; STIP3 variants, highest concentration 100 μg/mL
How it was run: as §2

[5] = system: S. aureus ATCC BAA-2094 (MRSA SCCmec type V); assay: MIC, broth dilution; assay type: cell-based, Staphylococcus aureus; conditions: Table 5; STIP3 variants, highest concentration 100 μg/mL
How it was run: as §2

[6] = system: S. aureus ATCC BAA-2313 (MRSA SCCmec type XI); assay: MIC, broth dilution; assay type: cell-based, Staphylococcus aureus; conditions: Table 5; STIP3 variants, highest concentration 100 μg/mL
How it was run: as §2

[7] = system: S. aureus ATCC BAA-41 (MRSA SCCmec type II); assay: MIC, broth dilution; assay type: cell-based, Staphylococcus aureus; conditions: Table 5; STIP3 variants, highest concentration 100 μg/mL
How it was run: as §2

[8] = system: S. aureus ATCC BAA-42 (MRSA SCCmec type VI); assay: MIC, broth dilution; assay type: cell-based, Staphylococcus aureus; conditions: Table 5; STIP3 variants, highest concentration 100 μg/mL
How it was run: as §2

[9] = system: S. aureus ATCC BAA-44 (MRSA SCCmec type I); assay: MIC, broth dilution; assay type: cell-based, Staphylococcus aureus; conditions: Table 5; STIP3 variants, highest concentration 100 μg/mL
How it was run: as §2

Candida krusei AR 397 = assay: MIC, YPD broth, CDC and FDA AR Candida isolate panel; assay type: cell-based; conditions: Table 9 top part: titrations from 1.56 to 100 μg/mL
How it was run: as §1

[10] = system: Candida lusitaniae AR 398; assay: as above; assay type: cell-based; conditions: Table 9 top part: titrations from 1.56 to 100 μg/mL
How it was run: as §1

[11] = system: Saccharomyces cerevisiae AR 399; assay: as above; assay type: cell-based; conditions: Table 9 top part: titrations from 1.56 to 100 μg/mL
How it was run: as §1

[12] = system: Saccharomyces cerevisiae AR 400; assay: as above; assay type: cell-based; conditions: Table 9 top part: titrations from 1.56 to 100 μg/mL
How it was run: as §1

Row | Compound | MIC (μg/mL) M. haemolytica [1] | MIC C. albicans MYA-2876 (C. albicans MYA-2876) | MIC (μg/mL) Candida duobushaemulonii AR 392 [2] | MIC (μg/mL) Kodamae ohmeri AR 396 (Kodamae ohmeri AR 396) | α helicity (%) [3] [%] | IC50, HeLa cell survival (HeLa cells) [µg/mL] | susceptibility to SspA cleavage (SspA protease) | MIC (μg/mL) M. luteus (M. luteus ATCC 4698) [µg/mL] | MIC (μg/mL) S. aureus (S. aureus ATCC 29213; Table 4, liquid broth) [µg/mL] | MIC S. aureus ATCC 29213 (S. aureus ATCC 29213; Table 5, STIP3 variants, highest concentration 100 μg/mL) [µg/mL] | MIC S. aureus ATCC 33592 (III) [4] [µg/mL] | MIC S. aureus ATCC BAA 2094 (V) [5] [µg/mL] | MIC S. aureus ATCC BAA 2313 (XI) [6] [µg/mL] | MIC S. aureus ATCC BAA 41 (II) [7] [µg/mL] | MIC S. aureus ATCC BAA 42 (VI) [8] [µg/mL] | MIC S. aureus ATCC BAA 44 (I) [9] [µg/mL] | MIC (μg/mL) Candida krusei AR 397 (Candida krusei AR 397) [µg/mL] | MIC (μg/mL) Candida lusitaniae AR 398 [10] [µg/mL] | MIC (μg/mL) Saccharomyces cerevisiae AR 399 [11] [µg/mL] | MIC (μg/mL) Saccharomyces cerevisiae AR 400 [12] [µg/mL]
1 | CC[C@H](C)[C@H](NC(=O)[C@H](Cc1c[nH]c2ccccc12)NC(=O)[C@H](CCCCN)NC(=O)[C@@H](NC(=O)[C@H](CC(C)C)NC(=O)CNC(=O)CNC(=O)[C@@H](NC(=O)[C@@H](NC(=O)[C@H](CCC(=O)O)NC(=O)[C@@H](NC(=O)[C@@H](NC(=O)[C@H](CC(=O)O)NC(=O)[C@H](CCCCN)NC(=O)[C@@H](NC(=O)[C@H](CCSC)NC=O)[C@@H](C)O)[C@@H](C)CC)C(C)C)[C@@H](C)O)C(C)C)C(C)C)C(=O)N[C@@H](CC(C)C)C(=O)N[C@@H](CC(=O)O)C(=O)N[C@H](C(=O)N[C@H](C(=O)N[C@@H](CCCCN)C(=O)N[C@@H](CCCCN)C(=O)N[C@@H](Cc1ccccc1)C(=O)N[C@@H](C)C(=O)O)C(C)C)[C@@H](C)O [δ-toxin, reference compound] (For-MTKDIVETVGGLVKWILDTVKKFA-OH) | > (> symbol indicates that no inhibition was observed at the highest concentration of peptide tested: 25 μg/mL) | > (> symbol indicates that no inhibition was observed at the highest concentration of peptide tested: 100 μg/mL) | > (MIC values reported at the top of the table (above the double line) are based on titrations from 1.56 to 100 μg/mL) | > (MIC values reported at the top of the table (above the double line) are based on titrations from 1.56 to 100 μg/mL) | 88 | 230 ± 30 (≈ 84.6 µM) | formylation protected against proteolysis |  |  |  |  |  |  |  |  |  |  |  |  | 
2 | H-MTKDIVETVGGLVKWILDTVKKFA [δ-toxin (df), reference compound] | > (> symbol indicates that no inhibition was observed at the highest concentration of peptide tested: 25 μg/mL) | 100 µg/mL | > (MIC values reported at the top of the table (above the double line) are based on titrations from 1.56 to 100 μg/mL) | > (MIC values reported at the top of the table (above the double line) are based on titrations from 1.56 to 100 μg/mL) | 87 |  | susceptible to SspA cleavage in vitro |  |  |  |  |  |  |  |  |  |  |  |  | 
3 | TVGGLVKWILDTVKKFA [STIP3-1, TVGGLVKWILDTVKKFA] |  | 25 µg/mL |  |  |  | 200 ± 30 | cleave the bioactive peptide into an inactive mixture | 12.5 | 100 | 100 | 100 | 100 | 100 | 100 | 100 | 100 | 25 | 100 | 50 | 12.5
